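Cultured in 96-well plates, cells were exposed to test compound for 48 hours across five concentrations. TGI denotes the concentration required for complete inhibition of growth.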 A value given as a limit tells only on which side of the number the result lay.

Some test systems named below: CCRF-CEM leukemia; SK-MEL-5 melanoma; IGROV1 ovarian; SR leukemia; MDA-MB-435; SNB-75 CNS; A549 NSCLC; K-562 leukemia; MALME-3M melanoma; SN12C renal.
Assay in all cases: NCI-60 cell line screen, 48 h

As to `CC(C)(CO)CNc1nc(N)nc(Cl)c1/C=N/O`, the TGI is over 100 µM with CCRF-CEM leukemia; 18.8 µM in the experiment on SK-MEL-5 melanoma; 90.8 µM in the experiment with IGROV1 ovarian; over 100 µM in the experiment with SR leukemia; over 100 µM in the experiment with MDA-MB-435; over 100 µM in the experiment with SNB-75 CNS. Also, the TGI with A549 NSCLC, in the experiment with K-562 leukemia, in the experiment with MALME-3M melanoma and with SN12C renal was over 100 µM throughout.
Take `CN1CC[C@]2(c3cccc(O)c3)CC(=O)/C(=C/c3ccccc3)[C@@H]1C2`: the TGI with CCRF-CEM leukemia is over 24.5 µM; in the experiment with SK-MEL-5 melanoma, 14.7 µM; in the experiment with IGROV1 ovarian, 14.6 µM; with SR leukemia it was 8.68 µM; in the experiment with MDA-MB-435, 5.38 µM; in the experiment with SNB-75 CNS, 5.27 µM. Moreover, the TGI in the experiment on A549 NSCLC came out at 13.2 µM; in the experiment with K-562 leukemia, 4.01 µM; in the experiment on MALME-3M melanoma, 10.4 µM; in the experiment with SN12C renal, 13.6 µM.
Turning to `CC(C)Oc1cccc(N2C(=NCc3c[nH]c4ccccc34)Nc3ccncc3S2(=O)=O)c1`, the TGI with CCRF-CEM leukemia was over 100 µM; in the experiment on SK-MEL-5 melanoma, 27.7 µM; in the experiment with IGROV1 ovarian it was over 100 µM; in the experiment on SR leukemia, over 100 µM; with MDA-MB-435, over 100 µM; in the experiment with SNB-75 CNS it was 67.7 µM. The TGI in the experiment with A549 NSCLC was over 100 µM; with K-562 leukemia, over 100 µM; in the experiment with MALME-3M melanoma, 58.8 µM; in the experiment on SN12C renal, over 100 µM.
On to `COc1cc2c(cc1OCCCN1C(=O)c3cccc4cccc(c34)C1=O)N=C[C@@H]1CCCN1C2=O`, for which the TGI with CCRF-CEM leukemia is 22.2 µM; with SK-MEL-5 melanoma, over 63.6 µM; in the experiment with IGROV1 ovarian, 31.5 µM; in the experiment with SR leukemia it was 25.5 µM; in the experiment with MDA-MB-435 it was over 100 µM; with A549 NSCLC it was over 100 µM. In addition, the TGI is over 80.5 µM with K-562 leukemia, 35.1 µM in the experiment on MALME-3M melanoma and over 100 µM with SN12C renal.
For the compound `c1ccc(C(C(=Nc2ccc(Cc3ccc(N=C(C(c4ccccc4)c4ccccc4)N4CC4)cc3)cc2)N2CC2)c2ccccc2)cc1`, the TGI was 49.8 µM in the experiment on CCRF-CEM leukemia; 20.1 µM with SK-MEL-5 melanoma; 2.41 µM in the experiment on IGROV1 ovarian; 15.7 µM with SR leukemia; 21.1 µM in the experiment with MDA-MB-435; 22.3 µM in the experiment with A549 NSCLC. For the same compound, the results for the TGI with K-562 leukemia, in the experiment with MALME-3M melanoma and in the experiment on SN12C renal were 17.6 µM, 38.8 µM and 32.3 µM, respectively.
With `CN1CCN(Cc2cc3c(nn2)-c2ccccc2C3=O)CC1`, the TGI was over 100 µM with CCRF-CEM leukemia; 35.1 µM in the experiment with SK-MEL-5 melanoma; over 100 µM in the experiment with IGROV1 ovarian; over 100 µM in the experiment with SR leukemia; 50.2 µM with MDA-MB-435; over 100 µM in the experiment on SNB-75 CNS. The TGI in the experiment on A549 NSCLC is over 100 µM; in the experiment with K-562 leukemia, over 100 µM; in the experiment with MALME-3M melanoma it was 39.2 µM.
`CC(C)C1=CC23CCC4C(C)(C(=O)O)CCCC4(C)C2CC1C1C(=O)N(CCCCCCN2C(=O)C4C5CC6C7(C)CCCC(C)(C(=O)O)C7CCC6(C=C5C(C)C)C4C2=O)C(=O)C13` (stereo not drawn): the TGI was 37.7 µM with CCRF-CEM leukemia; 26.9 µM in the experiment on SK-MEL-5 melanoma; 34.1 µM in the experiment with SR leukemia; 17.8 µM with MDA-MB-435; 45.3 µM with A549 NSCLC; over 100 µM in the experiment on K-562 leukemia. For the same compound, the TGI in the experiment on MALME-3M melanoma was found to be 31.2 µM; in the experiment with SN12C renal it was 32.4 µM.
As for `Cc1nc2ccccc2c(-n2cccn2)c1CCn1cccn1`, the TGI with CCRF-CEM leukemia, in the experiment on SK-MEL-5 melanoma, in the experiment with IGROV1 ovarian, with SR leukemia, in the experiment with MDA-MB-435 and with A549 NSCLC was over 100 µM each time. The TGI in the experiment with K-562 leukemia, in the experiment on MALME-3M melanoma and in the experiment with SN12C renal was over 100 µM throughout.
`CCOC(=O)c1c2cccccc-2nc1Nc1cccc2c(C)ccnc12`: the TGI in the experiment with CCRF-CEM leukemia, in the experiment on SK-MEL-5 melanoma, in the experiment on IGROV1 ovarian, with SR leukemia, with MDA-MB-435 and with A549 NSCLC was over 10 µM each time. Further, the TGI in the experiment on K-562 leukemia, with MALME-3M melanoma and in the experiment on SN12C renal was over 10 µM each time.
For `COc1cc(Nc2ccc3c(c2)CCC3)nc(OC)n1`, the TGI in the experiment on CCRF-CEM leukemia is over 100 µM; in the experiment with SK-MEL-5 melanoma, 62.3 µM; with IGROV1 ovarian it was over 100 µM; in the experiment on SR leukemia, 77.8 µM; with MDA-MB-435 it was over 100 µM; with SNB-75 CNS, 53.5 µM. Moreover, the TGI in the experiment with A549 NSCLC, in the experiment with MALME-3M melanoma and with SN12C renal was over 100 µM throughout.
Consider `CO/N=C(/C(=O)OC)c1ccccc1COc1ccccc1C(F)(F)F`, for which the TGI in the experiment with CCRF-CEM leukemia was over 100 µM; in the experiment with SK-MEL-5 melanoma it was 25.8 µM; in the experiment on IGROV1 ovarian, over 100 µM; in the experiment on SR leukemia, 79.2 µM; in the experiment with MDA-MB-435, over 100 µM; in the experiment with A549 NSCLC it was over 100 µM. The TGI with K-562 leukemia was over 100 µM; in the experiment on MALME-3M melanoma, 47.2 µM; in the experiment on SN12C renal, over 100 µM.
As for `CCOC(=O)/C(C(C)=O)=C(\OC(C)=O)c1ccncc1C(=O)O`, the TGI with CCRF-CEM leukemia, with IGROV1 ovarian, in the experiment on SR leukemia, in the experiment with MDA-MB-435, in the experiment on SNB-75 CNS and in the experiment on A549 NSCLC was over 100 µM each time. The TGI in the experiment with K-562 leukemia, in the experiment with MALME-3M melanoma and in the experiment on SN12C renal was over 100 µM each time.
As for `C=C1C(=O)[C@@]23CC[C@@H]4[C@@]5(C)CCC[C@@]4(OC5=O)[C@@]2(C)CC[C@@H]1C3`, the TGI in the experiment on CCRF-CEM leukemia is over 33.7 µM; in the experiment on SK-MEL-5 melanoma, 3.49 µM; in the experiment with IGROV1 ovarian, 4.99 µM; in the experiment on SR leukemia, over 100 µM; with MDA-MB-435, 13.7 µM; with SNB-75 CNS, 13.1 µM. Moreover, the TGI in the experiment with A549 NSCLC is 36.3 µM; in the experiment on MALME-3M melanoma it was 5.31 µM; in the experiment with SN12C renal it was 23.5 µM.
`O=C1/C(=C/c2ccc(Cl)cc2)CCCc2ccccc21`: the TGI is 32.5 µM in the experiment with CCRF-CEM leukemia; 43.3 µM in the experiment with IGROV1 ovarian; 37 µM with SR leukemia; 36.1 µM in the experiment on MDA-MB-435; over 100 µM in the experiment with SNB-75 CNS; 60 µM with A549 NSCLC. Besides, the TGI in the experiment with K-562 leukemia amounted to 12 µM; in the experiment on MALME-3M melanoma it was 27.5 µM; in the experiment with SN12C renal it was 33.3 µM.

Source of the values: PubChem BioAssay (NCI).
